In patent publication US11807612B2, “Heterocyclic compound and salt thereof, and luminescent substrate composition” (The University of Electro-Communications, priority 2020, dated 2023):

How the values were obtained:
[1] = target: T1, Ppy luciferase (derived from North American firefly Photinus pyralis) (Photinus pyralis, UniProt P08659); test: Luminescence spectrum measurement of luminescent substrates with Ppy luciferase, ATP-Mg; assay type: biochemical; conditions: for peak top wavelength of luminescence spectrum: substrate solution 100 μM, 1 mg/mL Ppy luciferase, 200 μM ATP-Mg, KPB pH 8.0, room temperature, 180 seconds, FIG. 1
T1 construct: purchased Promega Corporation E1701
Description: The luminescent substrates represented by structural formulae (1-1) and (1-2) that were synthesized as described above, a luminescent substrate represented by the following structural formula (b), and natural firefly luciferin (LH2, produced by Wako Pure Chemical Industries, Ltd.) represented by the following structural formula (d) were each used to measure a luminescence spectrum. Note that the luminescent substrate represented by structural formula (b) was prepared in accordance with Example 1 of JP2014-218456A (PTL 2).
A weak emission fluorescence spectrometer AB-1850 produced by ATTO Corporation was used to measure a luminescence spectrum. Each measured spectrum is a spectrum that has been corrected for detector characteristics (data interval 0.25 nm, measurement range 400 nm to 750 nm).
Recombinant luciferase (QuantiLum® (QuantiLum is a registered trademark in Japan, other countries, or both), catalogue no. E1701) produced by Promega Corporation
After mixing 5 μL of KPB solution (pH 8.0, 500 mM), 5 μL of luminescent substrate solution (100 μM), 5 μL of 1 mg/mL Ppy luciferase solution, and 10 μL of 200 μM ATP-Mg solution at room temperature, luminescence spectrum measurement was performed for 180 seconds using the luminescence spectrum measurement apparatus (AB-1850). The luminescence intensity was compared by the peak top value at this time. The results are illustrated in FIG. 1 and FIG. 2.
FIG. 1 is a luminescence spectrum normalized to give a maximum value for luminescence intensity of 1, and FIG. 2 is a luminescence spectrum illustrating luminescence intensity at each wavelength.

firefly luciferase (Luc) = firefly luciferase (Luc) (Photinus pyralis, UniProt P08659); conditions: firefly luminescence system; background, PTL 1 to 3; cited from earlier work
Chain of firefly luciferase (Luc) (P08659 whole entry): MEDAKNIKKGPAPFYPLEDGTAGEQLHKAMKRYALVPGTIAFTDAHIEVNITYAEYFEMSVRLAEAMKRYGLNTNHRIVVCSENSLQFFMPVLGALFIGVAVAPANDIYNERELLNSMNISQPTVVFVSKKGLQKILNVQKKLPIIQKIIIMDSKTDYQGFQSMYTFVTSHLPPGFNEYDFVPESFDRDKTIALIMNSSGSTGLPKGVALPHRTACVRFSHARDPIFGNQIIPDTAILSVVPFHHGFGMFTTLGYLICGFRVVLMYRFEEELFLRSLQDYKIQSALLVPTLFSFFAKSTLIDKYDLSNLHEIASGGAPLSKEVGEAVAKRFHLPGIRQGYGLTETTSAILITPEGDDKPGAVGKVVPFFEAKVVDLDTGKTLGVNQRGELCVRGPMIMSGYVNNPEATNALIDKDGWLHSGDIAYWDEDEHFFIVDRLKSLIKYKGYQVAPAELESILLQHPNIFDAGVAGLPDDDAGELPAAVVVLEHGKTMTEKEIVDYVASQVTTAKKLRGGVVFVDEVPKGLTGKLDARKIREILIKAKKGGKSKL

T1 sequence (P08659 whole entry): as above

| SMILES | luminescence intensity (peak top value) relative to luminescent substrate of structural formula (b) ([1]; same conditions, FIGS. 1 and 2) | luminescence intensity (peak top value) relative to natural firefly luciferin ([1]; same conditions, FIGS. 1 and 2) | luminescence wavelength compared with luminescent substrate of structural formula (b) ([1]; same conditions, FIGS. 1 and 2) | peak top wavelength of luminescence spectrum [1] | maximum wavelength of luminescence spectrum / wavelength of emitted light (firefly luciferase (Luc)) |
| --- | --- | --- | --- | --- | --- |
| CN(C)c1ncc(/C=C/C=C/C2=N[C@@H](C(=O)O)CS2)s1 [structural formula (1-1), (S)-2-((1E,3E)-4-(2-(dimethylamino)thiazol-5-yl)buta-1,3-dien-1-yl)-4,5-dihydrothiazole-4-carboxylic acid] | approximately four times higher | approximately half | shorter wavelength | approximately 630 nm |  |
| CN(C)c1cnc(/C=C/C=C/C2=N[C@@H](C(=O)O)CS2)s1 [structural formula (1-2), (S)-2-((1E,3E)-4-(5-(dimethylamino)thiazol-2-yl)buta-1,3-dien-1-yl)-4,5-dihydrothiazole-4-carboxylic acid] | approximately four times higher | approximately half |  | approximately 680 nm |  |
| CN(C)c1ccc(/C=C/C=C/C2=N[C@@H](C(=O)O)CS2)cc1 [structural formula (a)] |  |  |  |  | roughly 670 nm |
| CN(C)c1ccc(/C=C/C=C/C2=N[C@@H](C(=O)O)CS2)nc1 [structural formula (c)] |  |  |  |  | roughly 670 nm |
| O=C(O)[C@H]1CSC(c2nc3ccc(O)cc3s2)=N1 [natural firefly luciferin, firefly luciferin] |  |  |  |  | approximately 560 nm |
